The values that follow come from patent US20160120882A1, “COMPOSITION HAVING A BENEFICIAL EFFECT ON THE CARDIOVASCULAR SYSTEM” (ESSENTIAL IP BV, priority 2013, published 2016).

The conditions of series [1]: clinical studies; cited from earlier work.
The conditions of series [2]: cyclosporine 3 mg/kg twice daily; berberine 0.2 g three times a day for three months; cited from earlier work.
For the next series, the target named is T1, CYP1A1 (Homo sapiens, UniProt P04798).
T1 sequence (P04798 1-512): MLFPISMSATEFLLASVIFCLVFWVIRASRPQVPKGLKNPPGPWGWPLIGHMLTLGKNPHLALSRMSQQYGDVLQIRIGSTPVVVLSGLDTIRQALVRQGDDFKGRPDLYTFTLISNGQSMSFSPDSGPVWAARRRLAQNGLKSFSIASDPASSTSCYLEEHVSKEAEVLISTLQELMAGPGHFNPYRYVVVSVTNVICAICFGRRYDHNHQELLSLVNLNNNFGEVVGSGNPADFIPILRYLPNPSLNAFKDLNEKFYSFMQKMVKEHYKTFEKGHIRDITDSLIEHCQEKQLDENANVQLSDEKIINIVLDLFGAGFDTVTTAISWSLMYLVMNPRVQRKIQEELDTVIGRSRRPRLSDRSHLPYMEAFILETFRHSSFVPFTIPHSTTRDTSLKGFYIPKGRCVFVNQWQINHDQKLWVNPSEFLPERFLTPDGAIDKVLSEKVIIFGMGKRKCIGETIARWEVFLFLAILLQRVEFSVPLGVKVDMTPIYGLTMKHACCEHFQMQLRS
To be noted: in vitro; cited from earlier work.

The conditions of series [3]: cited from earlier work.
For series [4] the following is noted: calculated from the NOAEL in rats; cited from earlier work.
The conditions of series [5]: various clinical trial data; cited from earlier work.
For series [6] the following is noted: subjects with high blood pressure; cited from earlier work.
For series [7] the following is noted: cited from earlier work. The source holds these as a separate data set.
The conditions of series [8]: lycopene group versus 30% in control group; cited from earlier work.
For series [9] the following is noted: cited from earlier work. This is another data set of the same source.
The conditions of series [10]: lycopene from all sources (EFSA, 2008); cited from earlier work.
The subject of series [11] is human monocytic THP-1 cells. The series is described as follows: uptake of fluorescently labeled oxLDL by PMA-stimulated THP-1 macrophages (foam cell formation model), FACS. The format is cell-based. Conditions: for effect on the uptake of oxLDL: PMA-stimulated THP-1 cells, FIG. 1; for oxLDL uptake, Average: average of 6 independent measurements; for oxLDL uptake, Average / oxLDL uptake [Median Fluorescence intensity]: VitD3 100 nM, lycopene 0.5 uM, monacolin K 10 uM, control average 12617; for oxLDL uptake [Median Fluorescence intensity]: single measurement (1-6), 24 h pre-treatment, then 10 ug/ml Dil-oxLDL 24 h. The text has this:
We employed a model for measuring the oxLDL uptake by macrophages, a known and accepted model for determining foam cell formation, which in turn is an accepted measure for plaque formation as well as for the development of atherosclerosis and decreasing vascular health in general. Our experimental data are therefore relevant for determining the beneficial effects of several active ingredients on the cardiovascular system.
More in detail, we stimulated human monocytic THP-1 cells [Tsuchiya S, Yamabe M, Yamaguchi Y, Kobayashi Y, Konno T, Tada K (August 1980). “Establishment and characterization of a human acute monocytic leukemia cell line (THP-1)”. Int. J. Cancer 26 (2): 171-6. doi:10.1002/ijc.2910260208.] with phorbol 12-myristate 13-acetate (PMA) and contacted or pre-treated the cells with a number of active ingredients. After 24 hours of pre-treatment, the cells were contacted with or exposed to fluorescently labeled oxLDL and uptake of oxLDL was determined after 24 hours (see example 1).
THP-1 cells (P7) were plated in a 96-wells suspension culture plate at a density of 1*10̂6 cells/ml whereby 1*10̂5 cells were plated. Cells were cultured in IMDM phenol-red free medium (Invitrogen, Eugene, Oreg., USA) enriched for 10% fetal calf serum (FCS), 100 U/ml penicillin, 100 μg/ml streptomycin and 2 mM L-glutamin. Monocytes were differentiated with 50 ng/ml phorbol 12-myristate 13-acetate (PMA) (Sigma Aldrich, St. Louis, Mo. USA) for 48 h where after medium was replaced. After differentiation, macrophages were cultured in the presence or absence of different compounds for 24h (Table 2). After pre-treatment, cells were exposed to 10 ug/ml Dil-labeled oxidized lipoprotein (oxLDL) (Biotrend Chemikalien GmbH, Cologne, Germany) for another 24h at 37° C. to enable foam cell formation in the absence of presence of the different compounds (FIG. 1). After this, cells were washed with PBS (−/−) (PAA, Pitscataway, N.J., USA) and detached by Lidocaine hydrochloride (4 mg/ml) EDTA (10 mM) solution (Sigma Aldrich, St. Louis, Mo. USA)/(Invitrogen, Eugene, Oreg., USA). Cells were washed two more times with FACS buffer (PBS containing 0.5% BSA and 0.2 mM EDTA) and transferred to a 96 U-shaped plate for FACS analysis. Analysis was performed on the FACS Canto II HTS and 1,1′-dioctadecyl-3,3,3′3′-tetra-methylindocyanide percholorate (Dip-labeled oxLDL uptake was measured in PE-A channel.
Macrophages were exposed to vitamin D3, lycopene and/or monacolin K and the inhibitory effect of oxLDL uptake of these three active ingredients was measured. The inhibitory potentiol of each compound and composition was expressed as the difference between the measurements obtained with and without the compound or composition.

The conditions of series [12]: daily intake of Red Yeast Rice containing 10 mg monacolin K; cited from earlier work.
For series [13] the following is noted: rat, in vivo; cited from earlier work.
For series [14] the following is noted: mouse, in vivo; cited from earlier work.
The conditions of series [15]: per increase in dietary intake of vitamin K2 by 10 microgram; 8 years, 480 cardiovascular events; cited from earlier work.
For series [16] the following is noted: high versus low dietary intake of vitamin K2; cited from earlier work.
Where [17] appears, read: subgroup of trials using lycopene dosages of >=25 mg daily.

Molecules are shown by their SMILES. Where “and” joins values, the source holds several entries; their conditions need not be identical. Equal entries are not always repeated. Structures can show the parent of a compound that is named as a salt. Where two headings read alike, the source gives them in different places.

In the case of `COc1ccc2cc3[n+](cc2c1OC)CCc1cc2c(cc1-3)OCO2` [Berberine], in series [1], the “reduction of total cholesterol” value is reported as 15-18%. The “increase of mean cyclosporine A Area under the Curve (AUC)” value in series [2] is on record as 34.5%. The “effect on CYP1A1” value at CYP1A1 was “inhibit CYP1A1”. Also, in [3] (P<0.001), the “reduction of fasting plasma insulin” value is on record as 28.1% and the “reduction of insulin resistance index” value was 44.7%. Also, in series [3] (decreased from 8.1%), the HBA1c after treatment was 7.3%.

Take `COC1=C(OC)C(=O)C(C/C=C(\C)CC/C=C(\C)CC/C=C(\C)CC/C=C(\C)CC/C=C(\C)CC/C=C(\C)CC/C=C(\C)CC/C=C(\C)CC/C=C(\C)CCC=C(C)C)=C(C)C1=O` [CoQ10, Coenzyme Q10]: the “acceptable daily intake (ADI)” value in series [4] was 12 mg/kg/day. The “observed safety level (OSL)” value in series [5] is on record as 1200 mg/day/person. In series [6], the “mean decrease in diastolic blood pressure” value is recorded as 7-10 mmHg and the “mean decrease in systolic blood pressure” value is 11-17 mmHg.

Take `CC(C)=CCC/C(C)=C/C=C/C(C)=C/C=C/C(C)=C/C=C/C=C(C)/C=C/C=C(C)/C=C/C=C(\C)CCC=C(C)C` [Lycopene]: in [7] (meta-analysis of 12 studies), the HDL levels result is “remained unchanged”. For the same compound, in series [7] (setting [17]), the LDL cholesterol lowering result was “LDL cholesterol lowering of 10%” and the “total serum cholesterol lowering” value is on record as 10%. Further, in series [7] (subgroup of trials using lycopene dosages of >=25 mg daily, listed as lycopene), the LDL cholesterol lowering is listed as 10%. In addition, the “incidence of prostate cancer” value in series [8] is recorded as 10%. Moreover, in series [9] (Table 1 summary range), the “Systolic blood pressure lowering” value is 5.6-9.5 mmHg. In addition, the “systolic blood pressure reducing effect” value in [9] (meta-analysis of 4 studies) is on record as 5.60 mmHg. Also, the “systolic blood pressure reduction” value in [9] (subgroup of trials with high blood pressure at baseline (SBP >=140 mm Hg)) is recorded as 9.35 mmHg. Further, in [10], the “acceptable daily intake (ADI)” value is listed as 0.5 mg/kg/day. In series [11], the “effect on the uptake of oxLDL” value is “slightly inhibited”; the “oxLDL uptake, Average” value is on record as 11405 Median Fluorescence intensity; the “oxLDL uptake [Median Fluorescence intensity]” value was 9832 Median Fluorescence intensity and 11500 Median Fluorescence intensity and 12200 Median Fluorescence intensity and 11900 Median Fluorescence intensity and 11300 Median Fluorescence intensity and 11700 Median Fluorescence intensity.

As for `CC[C@H](C)C(=O)O[C@H]1C[C@@H](C)C=C2C=C[C@H](C)[C@H](CC[C@@H]3C[C@@H](O)CC(=O)O3)[C@H]21` [Monacolin K], in [11], the “effect on the uptake of oxLDL” value is “no effect”; the “oxLDL uptake, Average” value is on record as 12667 Median Fluorescence intensity; the “oxLDL uptake [Median Fluorescence intensity]” value was 14300 Median Fluorescence intensity and 11900 Median Fluorescence intensity and 11700 Median Fluorescence intensity and 11800 Median Fluorescence intensity and 14400 Median Fluorescence intensity. Also, in [12], the LDL cholesterol lowering entry is listed as “LDL cholesterol lowering of 7-25%”, the “lowering of triglyceride blood levels” value is “by 10-44%” and the “relative increase of HDL” value was “Relative increase of HDL up to 17%”.

Turning to `C=C1CC[C@H](O)C/C1=C/C=C1\CCC[C@]2(C)[C@@H]([C@H](C)CCCC(C)C)CC[C@@H]12` [VitD3, Vitamin D3], in series [11], the “effect on the uptake of oxLDL” value is “no effect”; the “oxLDL uptake, Average” value is recorded as 12300 Median Fluorescence intensity; the “oxLDL uptake [Median Fluorescence intensity]” value was 13100 Median Fluorescence intensity and 13200 Median Fluorescence intensity and 12600 Median Fluorescence intensity and 10900 Median Fluorescence intensity.

On to `COc1ccc2cc3[n+](cc2c1OC)CCc1cc2c(cc1-3)OCO2` [berberine HCL], for which the LD50 is above 15000 mg/kg in series [13] and above 29586 mg/kg in series [14].

For `CC(C)=CCC/C(C)=C/CC/C(C)=C/CC/C(C)=C/CC1=C(C)C(=O)c2ccccc2C1=O` [vitamin K2, Vitamin K2], the risk reduction in series [15] is 9%. For the same compound, in [16], the “less calcification of the aorta” value is 52%, the less myocardial infarctions is given as 57% and the less overall mortality is listed as 26%.

As a reminder, the LD50 is the dose expected to kill half of the subjects tested.
